According to patent publication US20240237643A1, “COMPOSITIONS WITH VIRUCIDAL AND/OR ANTIVIRAL ACTIVITY” (priority 2020, published 2024):

Legend:
Experiment in all cases: Virucidal activity, quantitative suspension test DIN EN 14476
Type in all cases: cell-based
[1] = test system: Herpes simplex virus (HV)
Influenza virus (H1N1) = test system: Influenza virus (H1N1)
Coronavirus (MHV-3) = test system: Coronavirus (MHV-3)
Experimental: Testing was conducted over a period of 1 to 10 minutes. Activity against the following viruses was determined: • Coronavirus (MHV-3) • Influenza virus (H1N1) • Herpes simplex virus (HV) • Human respiratory syncytial virus (HRSV)
In this context (+) means that more than 99.99% of all viruses were inactivated; this is equivalent to a reduction factor of 10,000.

[2] = test system: Human respiratory syncytial virus (HRSV)
[3] = 0.1 wt.-percent in water, 1 min
[4] = 0.1 wt.-percent in water, 10 min
[5] = 10 wt.-percent in water, 10 min

`CCCCCCCCC(O)CO` (stereo not shown) [1,2-decanediol] was tested, and the “Virucidal activity HV” value [1, 3] was “(+) ((+) means that more than 99.99% of all viruses were inactivated; this is equivalent to a reduction factor of 10,000)”, the “Virucidal activity HV” value [1, 4] was “(+) ((+) means that more than 99.99% of all viruses were inactivated; this is equivalent to a reduction factor of 10,000)” and the “Virucidal activity HV” value ([1]; 1 wt.-percent in water, 1 min) was “(+) ((+) means that more than 99.99% of all viruses were inactivated; this is equivalent to a reduction factor of 10,000)”. For the same compound, the “Virucidal activity HV” value ([1]; 1 wt.-percent in water, 10 min) was “(+) ((+) means that more than 99.99% of all viruses were inactivated; this is equivalent to a reduction factor of 10,000)”, the “Virucidal activity HV” value ([1]; 10 wt.-percent in water, 1 min) was “(+) ((+) means that more than 99.99% of all viruses were inactivated; this is equivalent to a reduction factor of 10,000)” and the “Virucidal activity HV” value [1, 5] was “(+) ((+) means that more than 99.99% of all viruses were inactivated; this is equivalent to a reduction factor of 10,000)”. The “Virucidal activity H1N1” value (Influenza virus (H1N1); [3]) was “(+) ((+) means that more than 99.99% of all viruses were inactivated; this is equivalent to a reduction factor of 10,000)”, the “Virucidal activity H1N1” value (Influenza virus (H1N1); [4]) was “(+) ((+) means that more than 99.99% of all viruses were inactivated; this is equivalent to a reduction factor of 10,000)” and the “Virucidal activity H1N1” value (Influenza virus (H1N1); 1 wt.-percent in water, 1 min) was “(+) ((+) means that more than 99.99% of all viruses were inactivated; this is equivalent to a reduction factor of 10,000)”. The “Virucidal activity H1N1” value (Influenza virus (H1N1); 1 wt.-percent in water, 10 min) was “(+) ((+) means that more than 99.99% of all viruses were inactivated; this is equivalent to a reduction factor of 10,000)”, the “Virucidal activity H1N1” value (Influenza virus (H1N1); 10 wt.-percent in water, 1 min) was “(+) ((+) means that more than 99.99% of all viruses were inactivated; this is equivalent to a reduction factor of 10,000)” and the “Virucidal activity H1N1” value (Influenza virus (H1N1); [5]) was “(+) ((+) means that more than 99.99% of all viruses were inactivated; this is equivalent to a reduction factor of 10,000)”. The “Virucidal activity MHV-3” value (Coronavirus (MHV-3); [3]) was “(+) ((+) means that more than 99.99% of all viruses were inactivated; this is equivalent to a reduction factor of 10,000)”, the “Virucidal activity MHV-3” value (Coronavirus (MHV-3); [4]) was “(+) ((+) means that more than 99.99% of all viruses were inactivated; this is equivalent to a reduction factor of 10,000)” and the “Virucidal activity MHV-3” value (Coronavirus (MHV-3); 1 wt.-percent in water, 1 min) was “(+) ((+) means that more than 99.99% of all viruses were inactivated; this is equivalent to a reduction factor of 10,000)”. The “Virucidal activity MHV-3” value (Coronavirus (MHV-3); 1 wt.-percent in water, 10 min) was “(+) ((+) means that more than 99.99% of all viruses were inactivated; this is equivalent to a reduction factor of 10,000)”, the “Virucidal activity MHV-3” value (Coronavirus (MHV-3); 10 wt.-percent in water, 1 min) was “(+) ((+) means that more than 99.99% of all viruses were inactivated; this is equivalent to a reduction factor of 10,000)” and the “Virucidal activity MHV-3” value (Coronavirus (MHV-3); [5]) was “(+) ((+) means that more than 99.99% of all viruses were inactivated; this is equivalent to a reduction factor of 10,000)”. For the same compound, the “Virucidal activity HRSV” value [2, 3] was “(+) ((+) means that more than 99.99% of all viruses were inactivated; this is equivalent to a reduction factor of 10,000)”, the “Virucidal activity HRSV” value [2, 4] was “(+) ((+) means that more than 99.99% of all viruses were inactivated; this is equivalent to a reduction factor of 10,000)” and the “Virucidal activity HRSV” value ([2]; 1 wt.-percent in water, 1 min) was “(+) ((+) means that more than 99.99% of all viruses were inactivated; this is equivalent to a reduction factor of 10,000)”. For the same compound, the “Virucidal activity HRSV” value ([2]; 1 wt.-percent in water, 10 min) was “(+) ((+) means that more than 99.99% of all viruses were inactivated; this is equivalent to a reduction factor of 10,000)”, the “Virucidal activity HRSV” value ([2]; 10 wt.-percent in water, 1 min) was “(+) ((+) means that more than 99.99% of all viruses were inactivated; this is equivalent to a reduction factor of 10,000)” and the “Virucidal activity HRSV” value [2, 5] was “(+) ((+) means that more than 99.99% of all viruses were inactivated; this is equivalent to a reduction factor of 10,000)”.

With `CCCCC(O)CO` (stereo not shown) [1,2-hexanediol] the “Virucidal activity HV” value ([1]; 33 wt.-percent in water, 1 min) was “(+) ((+) means that more than 99.99% of all viruses were inactivated; this is equivalent to a reduction factor of 10,000)”, the “Virucidal activity H1N1” value (Influenza virus (H1N1); 33 wt.-percent in water, 1 min) was “(+) ((+) means that more than 99.99% of all viruses were inactivated; this is equivalent to a reduction factor of 10,000)” and the “Virucidal activity MHV-3” value (Coronavirus (MHV-3); 33 wt.-percent in water, 1 min) was “(+) ((+) means that more than 99.99% of all viruses were inactivated; this is equivalent to a reduction factor of 10,000)”. The “Virucidal activity HRSV” value ([2]; 33 wt.-percent in water, 1 min) was “(+) ((+) means that more than 99.99% of all viruses were inactivated; this is equivalent to a reduction factor of 10,000)”.
